Measurements published in PMC12114619, “Nifuroxazide and 4-Hydroxybenzhydrazone Derivatives as New Antiparasitic (Trypanosoma cruzi and Leishmania mexicana) and Anti-Mycobacterium tuberculosis Agents” (Pharmaceutics, 2025).
In brackets after ≈: the same amount, converted by molar mass. Several values for one entry are separate records, joined by “and”; a condition that tells them apart may be missing. Identical values can stand only once. Like-named read-outs stand apart in the source and are kept apart here.

What was measured:
[1] = test system: T. cruzi NINOA (MHOM/MX/1994/NINOA) strain epimastigotes; test: Trypanocidal activity, T. cruzi epimastigotes, NINOA strain (resazurin); type: cell-based, Trypanosoma cruzi; conditions: 48 h
[2] = test system: T. cruzi strain A1 epimastigotes; test: Trypanocidal activity, T. cruzi epimastigotes, A1 strain (resazurin); type: cell-based, Trypanosoma cruzi; conditions: 48 h
[3] = test system: L. mexicana MNYC/BZ/62/M379 promastigotes; test: Leishmanicidal activity, L. mexicana promastigotes, M379 strain (MTT); type: cell-based, Leishmania mexicana; conditions: 48 h
Description: (§1) For leishmanicidal assays, the reference strain (MNYC/BZ/62/M379) and the isolate (MHOM/MX/2017/UABJO17FCQEPS) of L. mexicana were used. Promastigotes were cultured in RPMI 1640 medium supplemented with 10% FBS, 100 U/mL penicillin-100 […] streptomycin, and glutamine (2 mM). 100 µL parasites (5 × 10^5/mL) were added in a 96-well plate, and 100 µL of appropriate concentrations (0.78 to 200 µM) of each sample dissolved in DMSO and incubated for 48 h at 26 °C. Wells containing promastigotes with DMSO 0.2% were used as a negative control, and the reference drug glucantime was included as the positive control. The 3-(4,5-Dimethylthiazol-2-yl)-2,5-diphenyltetrazolium bromide (MTT) was used to measure metabolic activity. The IC50 values were calculated with the probit statistical tool. All samples were evaluated in triplicate in three independent experiments.

[4] = test system: L. mexicana MHOM/MX/2017/UABJO17FCQEPS promastigotes; test: Leishmanicidal activity, L. mexicana promastigotes, FCQEPS isolate (MTT); type: cell-based, Leishmania mexicana; conditions: 48 h, FCQEPS strain
Description: as §1

[5] = test system: M. tuberculosis H37Rv (ATCC 27294); test: Anti-Mycobacterium activity, microplate Alamar Blue Assay (MABA); type: cell-based, Mycobacterium tuberculosis; conditions: H37Rv strain, minimum concentration achieving 90% inhibition; for MIC: Mycobacterium tuberculosis
Description: The reference strain H37Rv (ATCC 27294) of M. tuberculosis was utilized to assess anti-M. tuberculosis activity using the microplate Alamar Blue Assay (MABA), as previously reported. Samples underwent evaluation in triplicate independent experiments. Isoniazid, rifampicin, moxifloxacin, and linezolid were included as reference drugs, and the minimum drug concentration that achieved 90% inhibition was recorded as the minimum inhibitory concentration (MIC).

[6] = Cytotoxicity on macrophages (MTT); type: cell-based, mouse; conditions: mouse
Description: Cytotoxicity was assessed on J774.2 mouse macrophage cells (ATCC® TIB-67, ATCC, Manassas, VA, USA). Cells were cultured in RPMI medium supplemented with 10% SFB, 100 U µg/mL penicillin-100 mg/mL streptomycin, and glutamine (2 mM) at 37 °C and in a 5% CO2 atmosphere. A known concentration of cells (1 × 10^6/mL) was incubated with the compounds at different concentrations (0.78 to 200 µM) for 48 h at 37 °C in a CO2 atmosphere (5%). Wells containing cells treated with 0.2% DMSO were used as a negative control. MTT was employed to evaluate the metabolic activity. Next, the cell viability was calculated (%), and the cytotoxic concentration (CC50) was determined with probit analysis. All samples were evaluated in triplicate in three independent experiments.

[7] = Cytotoxicity (CC50) Macrophages J774.2

Compound	IC50 T. cruzi NINOA [1]	IC50 ([1]; Trypanosoma cruzi) [µM]	IC50 ([2]; Trypanosoma cruzi) [µM]	IC50 ([3]; Leishmania mexicana) [µM]	IC50 ([4]; Leishmania mexicana) [µM]	MIC [5] [µg/mL]	CC50 at 48 h [6, 7] [µM]	IC50 [1] [µM]	IC50 [2] [µM]	IC50 L. mexicana M379 [3]	IC50 [3]	MABA MIC [5] [µg/mL]	IC50 T. cruzi A1 [2]	IC50 [4] [µM]	IC50 ([1]; listed as Bzn) [µM]	IC50 ([1]; listed as Nfx) [µM]	CC50 at 48 h ([6]; J774.2 macrophage cells, J774.2 macrophages, 48 h, MTT, read-out: Cytotoxicity (CC50) Macrophages J774.2) [µM]
O=C(N/N=C/c1ccc2c(c1)OCCO2)c1ccc(O)cc1 [Nfz-21]	loss of the activity	> 100	49 ± 2.1	71.5 ± 4.9	> 200	68.7 (≈ 230 µM)	> 100	–	–	–	–	–	–	–	–	–	–
NNC(=O)c1ccncc1 [Isoniazid, reference compound]	–	–	–	–	–	0.039 (≈ 0.284 µM)	–	–	–	–	–	–	–	–	–	–	–
O=C(N/N=C/c1cccs1)c1ccc(O)cc1 [Nfz-3]	–	> 50	19.9	> 200	49.8 ± 5	> 100	–	51 ± 2.8	20 ± 1.9	no leishmanicidal effects	–	–	–	–	–	–	–
O=C(N/N=C/c1ccccc1O)c1ccc(O)cc1 [Nfz-10]	–	> 100	8.7	> 50	> 200	< 50	> 100	–	8.77 ± 1.6	–	66.7 ± 2.9 µM	47.6	–	–	–	–	–
CCc1ccc(/C=N/NC(=O)c2ccc(O)cc2)cc1 [Nfz-8]	–	14.4	7.2	–	> 200	79.4 (≈ 296 µM)	> 100	14.5 ± 4.4	7.28 ± 2.2	–	–	–	–	–	–	–	–
O=C(N/N=C/c1ccccc1[N+](=O)[O-])c1ccc(O)cc1 [Nfz-19]	–	36.4	42.4	> 100	> 200	> 100	> 100	36.5 ± 2.2	42.5 ± 6.7	–	146.7 ± 0.7 µM	–	–	–	–	–	–
O=C(N/N=C/c1ccc(Cl)cc1)c1ccc(O)cc1 [Nfz-16]	loss of trypanocidal activity	> 100	< 50	> 60	78.1 ± 3.6	< 50	83.2 ± 3.2	–	40.2 ± 2.7	–	67.5 ± 4 µM	46.4	–	–	–	–	–
O=C(N/N=C/c1ccc(Br)cc1)c1ccc(O)cc1 [Nfz-17]	loss of trypanocidal activity	> 100	< 50	> 60	52.1 ± 4.8	< 50	> 100	–	33.6 ± 3.9	–	62 ± 2.5 µM	43.6	–	–	–	–	–
O=C(N/N=C/c1cc2c(cc1[N+](=O)[O-])OCO2)c1ccc(O)cc1 [Nfz-23]	loss of the activity	> 100	13.5	< 20	> 200	> 100	68.9 ± 6.6	–	13.5 ± 3.4	–	16 ± 2 µM	–	–	–	–	–	–
COc1cccc(/C=N/NC(=O)c2ccc(O)cc2)c1OC [Nfz-13]	–	> 60	> 100	162 ± 6.9	124.5 ± 1.1	158 (≈ 525 µM)	> 100	63.1 ± 1.4	–	–	–	–	–	–	–	–	–
COc1ccc(/C=N/NC(=O)c2ccc(O)cc2)cc1 [Nfz-11]	–	28.2	18.1	> 200	> 200	> 100	46.6 ± 4.9	28.2 ± 1.4	18.2 ± 1.4	–	–	–	–	–	–	–	–
COC(=O)c1ccc(/C=N/NC(=O)c2ccc(O)cc2)cc1 [Nfz-25]	no activity	> 100	> 100	32.5 ± 6.1	> 200	< 50	> 100	–	–	–	–	45.9	inactive	–	–	–	–
O=C(N/N=C/c1ccc(F)cc1)c1ccc(O)cc1 [Nfz-15]	loss of trypanocidal activity	> 100	< 50	~30	102 ± 2.7	> 100	74 ± 3.4	–	32.6 ± 2.8	–	35.1 ± 4.7 µM	–	–	–	–	–	–
CO[C@H]1/C=C/O[C@@]2(C)Oc3c(C)c(O)c4c(O)c(c(/C=N/N5CCN(C)CC5)c(O)c4c3C2=O)NC(=O)/C(C)=C\C=C\[C@H](C)[C@H](O)[C@@H](C)[C@@H](O)[C@@H](C)[C@H](OC(C)=O)[C@@H]1C [Rifampin, reference compound]	–	–	–	–	–	0.074 (≈ 0.0899 µM)	–	–	–	–	–	–	–	–	–	–	–
COc1cc(/C=N/NC(=O)c2ccc(O)cc2)cc(OC)c1OC [Nfz-14]	–	28 ± 1.9	29.2	> 200	10.2	> 200	> 100	–	29.2 ± 4.4	–	–	–	–	10.3 ± 0.8	–	–	–
O=C(N/N=C/c1ccc2ccccc2c1)c1ccc(O)cc1 [Nfz-20]	loss of the activity	> 100	24.4	< 30	> 200	> 100	88.3 ± 3.9	–	24.5 ± 2	–	28.4 ± 2.8 µM	–	–	–	–	–	–

Compound	IC50 T. cruzi NINOA [1]	IC50 ([1]; Trypanosoma cruzi) [µM]	IC50 ([2]; Trypanosoma cruzi) [µM]	IC50 ([3]; Leishmania mexicana) [µM]	IC50 ([4]; Leishmania mexicana) [µM]	MIC [5] [µg/mL]	CC50 at 48 h [6, 7] [µM]	IC50 [1] [µM]	IC50 [2] [µM]	IC50 L. mexicana M379 [3]	IC50 [3]	MABA MIC [5] [µg/mL]	IC50 T. cruzi A1 [2]	IC50 [4] [µM]	IC50 ([1]; listed as Bzn) [µM]	IC50 ([1]; listed as Nfx) [µM]	CC50 at 48 h ([6]; J774.2 macrophage cells, J774.2 macrophages, 48 h, MTT, read-out: Cytotoxicity (CC50) Macrophages J774.2) [µM]
O=C(N/N=C/c1ccc(Br)s1)c1ccc(O)cc1 [Nfz-2]	–	4.7	> 100	> 200	98.8 ± 5.2	< 20	95.5 ± 4.2	4.77 ± 5.6	–	no leishmanicidal effects	–	18.8	–	–	–	–	–
O=C(Cn1ccnc1[N+](=O)[O-])NCc1ccccc1 [Benznidazole, reference compound]	–	> 30	39	–	–	–	–	–	39.1 ± 0.7	–	–	–	–	–	30	–	–
O=C(N/N=C/c1ccccc1)c1ccc(O)cc1 [Nfz-6]	inactive	> 100	> 70	> 90	> 200	> 100	28.8 ± 1.5	–	74.4 ± 4.4	–	94.22 ± 0.9 µM	–	–	–	–	–	–
COc1c(N2C[C@@H]3CCCN[C@@H]3C2)c(F)cc2c(=O)c(C(=O)O)cn(C3CC3)c12 [Moxifloxacin, reference compound]	–	–	–	–	–	0.184 (≈ 0.458 µM)	–	–	–	–	–	–	–	–	–	–	–
Cn1cccc1/C=N/NC(=O)c1ccc(O)cc1 [Nfz-5]	inactivity	> 100	> 100	5.2	> 200	> 100	21.9 ± 4.4	–	78.5 ± 4.7	–	5.25 ± 5.8 µM	–	–	–	–	–	–
CC(=O)Nc1ccc(/C=N/NC(=O)c2ccc(O)cc2)cc1 [Nfz-24]	–	–	22.1	54.1	55.8 ± 3.5	> 100	> 100	–	22.2 ± 1.4	–	54.2 ± 4 µM	–	–	–	–	–	–
O=C(N/N=C/c1ccc(-c2ccccc2)cc1)c1ccc(O)cc1 [Nfz-22]	–	6.8	> 100	> 200	133 ± 1.4	> 100	43.5 ± 2.5	6.87 ± 1.2	–	–	–	–	–	–	–	–	–
O=C(N/N=C/c1ccc(O)cc1)c1ccc(O)cc1 [Nfz-9]	–	24.9 ± 3.2	> 100	–	94.3 ± 5.9	94.1 (≈ 367 µM)	82.7 ± 4.4	–	–	–	–	–	–	–	–	–	–
O=C(N/N=C/c1ccc([N+](=O)[O-])s1)c1ccc(O)cc1 [Nfz-1]	–	11.9	< 15	> 200	< 40	–	43.3 ± 2.7	11.9 ± 3.2	14 ± 1.9	no leishmanicidal effects	–	–	–	32.9 ± 7	–	–	–
CC1CS(=O)(=O)CCN1/N=C/c1ccc([N+](=O)[O-])o1 (centres unmarked) [Nifurtimox, reference compound]	–	> 7	19.3 ± 0.8	–	–	–	–	7.09 ± 0.2	–	–	–	–	–	–	–	7	–
O=C(N/N=C/c1ccco1)c1ccc(O)cc1 [Nfz-4]	–	18.8	28.8	83.9 ± 6.9	> 200	> 100	> 100	19 ± 2.1	28.9 ± 3.4	–	–	–	–	–	–	–	–
O=C(N/N=C/c1ccc([N+](=O)[O-])o1)c1ccc(O)cc1 [Nfz, Nifuroxazide]	–	36 ± 1.2	10.4	> 200	51.2 ± 4.2	< 20	–	–	10.4 ± 1.6	no leishmanicidal effects	–	12.3	–	–	–	–	42.2 ± 2.3
CC(=O)NC[C@H]1CN(c2ccc(N3CCOCC3)c(F)c2)C(=O)O1 [Linezolid, reference compound]	–	–	–	–	–	0.33 (≈ 0.978 µM)	–	–	–	–	–	–	–	–	–	–	–
Cc1ccc(/C=N/NC(=O)c2ccc(O)cc2)cc1 [Nfz-7]	–	26	> 70	–	103 ± 2.1	98.3 (≈ 387 µM)	91.7 ± 5.1	26 ± 2.9	75.2 ± 8.8	–	–	–	–	–	–	–	–
COc1ccccc1/C=N/NC(=O)c1ccc(O)cc1 [Nfz-12]	inactivity	> 100	> 100	< 20	60.3 ± 4.7	> 100	76.5 ± 3.6	–	–	–	11.5 µM and 11.6 µM	–	–	–	–	–	–
